Assay results taken from patent US20020082268A1, “Therapeutic compounds for the treatment of asthma and allergy, and methods of use thereof” (priority 2000, published 2002).

Tests used:
[1] = biological target: T1, Histamine H1-receptor (peripheral) (Cavia porcellus, UniProt P31389); test: Histamine H1-receptor (peripheral) binding assay, [3H]pyrilamine, guinea-pig lung membranes; conditions: 1 nM [3H]pyrilamine
T1 construct: Aliquots of guinea-pig lung membrane preparations corresponding to 800 μg protein are incubated; from tissue; host or cells: guinea-pig lung membranes
T1 sequence (P31389 whole entry): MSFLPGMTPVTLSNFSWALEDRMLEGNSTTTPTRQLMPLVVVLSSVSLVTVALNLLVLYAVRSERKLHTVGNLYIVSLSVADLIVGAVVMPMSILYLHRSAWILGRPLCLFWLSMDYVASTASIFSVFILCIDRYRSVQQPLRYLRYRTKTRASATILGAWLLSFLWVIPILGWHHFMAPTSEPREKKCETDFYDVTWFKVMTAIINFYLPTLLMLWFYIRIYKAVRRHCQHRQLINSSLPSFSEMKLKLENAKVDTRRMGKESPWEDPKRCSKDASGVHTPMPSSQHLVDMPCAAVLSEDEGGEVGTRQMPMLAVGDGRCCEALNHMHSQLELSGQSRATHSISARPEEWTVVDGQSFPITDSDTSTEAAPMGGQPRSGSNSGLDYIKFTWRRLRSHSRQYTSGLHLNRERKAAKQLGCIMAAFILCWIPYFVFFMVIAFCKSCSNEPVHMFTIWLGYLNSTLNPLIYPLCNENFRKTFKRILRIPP
Description: Histamine H1-receptor (peripheral) binding assays were performed according to the literature procedure (ref: Dini, S., et al, Agents and Actions, 1991, 33:181-184). Aliquots of guinea-pig lung membrane preparations corresponding to 800 μg protein are incubated for 15 min at 22° C. in 500 μl of 50 mM Na2HPO4/KH2PO4 buffer (pH 7.5) containing 1 nM [^3H]pyrilamine and increasing concentrations of the competing drugs. Nonspecific binding is determined in the presence of 100 μM triprolidine. After incubation, the samples are filtered rapidly under vacuum through glass fiber filters (GF/B, Whatman) and rinsed several times with ice-cold 50 mM Na2HPO4/KH2PO4 using a cell harvester (Brandel). Bound radioactivity is measured with a scintillation counter (LS 6000, Beckman) using a liquid scintillation cocktail (Formula 989, Packard).The reference compound for this assay is pyrilamine.
The results are expressed as percent of control specific binding and as a percent inhibition of control specific binding obtained in the presence of the tested compounds. IC50 values (concentration causing a half-maximal inhibition of control activity) and Hill coefficients (nH) are determined by non-linear regression analysis of the concentration-response curves. These parameters are obtained by Hill equation curve fitting.

5-LO = biological target: T2, 5-LO (UniProt P09917); test: 5-LO enzyme assay (RIA quantitation of 5-HETE); assay type: biochemical; conditions: Procedure A (RBL-1 cells) or B (HL-60 cells), not given; read-out: Inhibition of 5-LO: IC50
T2 sequence (P09917 1-674): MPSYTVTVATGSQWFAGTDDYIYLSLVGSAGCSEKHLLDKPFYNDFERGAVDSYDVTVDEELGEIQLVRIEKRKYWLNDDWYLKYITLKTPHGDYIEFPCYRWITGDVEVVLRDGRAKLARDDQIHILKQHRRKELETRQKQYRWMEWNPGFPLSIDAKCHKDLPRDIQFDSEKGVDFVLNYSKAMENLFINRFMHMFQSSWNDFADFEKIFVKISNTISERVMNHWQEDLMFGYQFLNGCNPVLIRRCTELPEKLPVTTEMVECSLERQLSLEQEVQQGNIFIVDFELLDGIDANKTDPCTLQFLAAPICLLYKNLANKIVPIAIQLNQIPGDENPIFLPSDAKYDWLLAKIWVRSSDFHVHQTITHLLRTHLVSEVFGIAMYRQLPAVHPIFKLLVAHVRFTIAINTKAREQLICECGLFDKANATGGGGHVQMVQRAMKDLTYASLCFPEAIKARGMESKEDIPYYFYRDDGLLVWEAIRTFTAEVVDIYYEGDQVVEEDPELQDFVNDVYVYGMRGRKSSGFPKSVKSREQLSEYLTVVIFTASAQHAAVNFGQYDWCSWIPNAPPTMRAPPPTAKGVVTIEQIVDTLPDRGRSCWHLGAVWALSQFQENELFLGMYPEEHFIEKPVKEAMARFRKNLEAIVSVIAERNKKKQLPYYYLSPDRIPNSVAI
Description: 5-LO enzyme assays (radio-immuno assays (RIA)) were performed according to literature procedures (ref: (a) Egan, R. W., and Gale, P. H., J. Biol. Chem. 1985, 260:11554-11559; (b) Shimizu, T., Rdamark, O., and Samuelsson, B. Proc. Natl. Acad. Sci. USA, 1984, 81:689-693); (c) Coffey, M. et al., J. Biol. Chem. 1992, 267: 570-576) using commercially available kits or reagents.
Tissue/cell sources: Rat basophilic leukemia cells (RBL-1);
Substrate: Arachidonic acid (AA) at 14 μM;
Reaction: AA→5-HPETE→5-HETE, incubation at 25° C. for 8 min;
Method: RIA quantitation of 5-HETE, reference compound NGDA (nordihydroquaiaretic acid).
Tissue/cell sources: Human differentiated HL-60 cells;
Substrate: Arachidonic acid (AA) at 0.4 μM;
Reaction: AA→5-HPETE→5-HETE, incubation at 37° C. for 10 min;
The results are expressed as percent of control activity and as a percent inhibition of control activity obtained in the presence of the tested compounds.
IC50 values (concentration causing a half-maximal inhibition of control activity) and Hill coefficients (nH) are determined by non-linear regression analysis of the concentration-response curves. These parameters are obtained by Hill equation curve fitting.

[2] = tested on: human differentiated HL-60 cells; test: LTB4 secretion assay in differentiated HL-60 cells (A23187, EIA); assay type: cell-based; conditions: 0.5 h, A23187 5 uM, 37 C, 30 min, read-out: Inhibition of LTB4 secretion: IC50
Description: The assays were performed using human differentiated HL-60 cells using NDGA as reference compound following the literature procedure (Bennett, C. F. et al, Biochem. J., 1993, 289: 33-39). Substrate A23187 (5 uM) was incubated along with test compound in HL-60 cells at 37 C for 30 min. Reaction product LTB4 was detected by enzymeimmuno assays (EIA) using commercially available kits and a microplate reader.

SMILES	IC50 [1] [µM]	IC50 (5-LO) [µM]	IC50 [2] [µM]
Cc1cccc2c(=O)n(O)c(CN3CCC(=C4c5ccc(Cl)cc5CCc5cccnc54)CC3)nc12 [Entry 4]	< 10	< 10	
Cc1cccc2nc(N3CCC(Nc4nc5ccccc5n4Cc4ccc(F)cc4)CC3)n(O)c(=O)c12 [Entry 23]	< 1		< 10
O=c1c2cc(O)ccc2nc(CN2CCC(Nc3nc4ccccc4n3Cc3ccc(F)cc3)CC2)n1O [Entry 8]	< 0.1	< 10	
O=c1c2ccccc2nc(N2CCC(Nc3nc4ccccc4n3Cc3ccc(F)cc3)CC2)n1O [Entry 12]	< 1	< 10	< 10
O=c1c2cc(F)ccc2nc(N2CCC(Nc3nc4ccccc4n3Cc3ccc(F)cc3)CC2)n1O [Entry 15]	< 0.1	< 1	< 10
O=C(O)c1ccc2nc(N3CCC(Nc4nc5ccccc5n4Cc4ccc(F)cc4)CC3)n(O)c(=O)c2c1 [Entry 10]	< 1	> 10	
COc1cccc2c(=O)n(O)c(N3CCC(Nc4nc5ccccc5n4Cc4ccc(F)cc4)CC3)nc12 [Entry 20]	< 1		> 10
O=c1c2cc(Br)ccc2nc(N2CCC(Nc3nc4ccccc4n3Cc3ccc(F)cc3)CC2)n1O [Entry 14]	< 1	< 10	< 10
O=c1c2c(Cl)cccc2nc(N2CCC(Nc3nc4ccccc4n3Cc3ccc(F)cc3)CC2)n1O [Entry 22]	< 1		< 1
O=c1c2cc(F)ccc2nc(CN2CCC(=C3c4ccc(Cl)cc4CCc4cccnc43)CC2)n1O [Entry 5]	< 10	< 10	
COc1ccc2nc(CN3CCC(Nc4nc5ccccc5n4Cc4ccc(F)cc4)CC3)n(O)c(=O)c2c1 [Entry 7]	< 1	< 10	
O=C(O)c1ccc2c(=O)n(O)c(CN3CCC(=C4c5ccc(Cl)cc5CCc5cccnc54)CC3)nc2c1 [Entry 3]	< 1	< 10	
O=c1c2ccccc2nc(N2CCN(C(c3ccccc3)c3ccc(Cl)cc3)CC2)n1O (centres unmarked) [Entry 13]	< 10		< 10
O=c1c2cc([N+](=O)[O-])ccc2nc(N2CCC(Nc3nc4ccccc4n3Cc3ccc(F)cc3)CC2)n1O [Entry 24]	< 1		> 10
O=c1c2cc(F)c(F)cc2nc(CN2CCC(Nc3nc4ccccc4n3Cc3ccc(F)cc3)CC2)n1O [Entry 6]	< 1	< 10	
O=C(O)c1ccc2c(=O)n(O)c(CN3CCC(Nc4nc5ccccc5n4Cc4ccc(F)cc4)CC3)nc2c1 [Entry 2]	< 1	> 10	
O=C(O)c1ccc2nc(CN3CCC(Nc4nc5ccccc5n4Cc4ccc(F)cc4)CC3)n(O)c(=O)c2c1 [Entry 9]	< 0.1	> 10	
COc1cc2nc(N3CCC(Nc4nc5ccccc5n4Cc4ccc(F)cc4)CC3)n(O)c(=O)c2cc1OC [Entry 21]	< 1		< 10
O=c1c2cc(Cl)ccc2nc(N2CCC(Nc3nc4ccccc4n3Cc3ccc(F)cc3)CC2)n1O [Entry 19]	< 1	< 1	< 10
O=C(O)c1ccc2nc(NC3CCN(c4nc5ccccc5n4Cc4ccc(F)cc4)CC3)n(O)c(=O)c2c1 [Entry 11]	< 10	> 10	
O=c1c2ccc(Cl)cc2nc(N2CCC(Nc3nc4ccccc4n3Cc3ccc(F)cc3)CC2)n1O [Entry 18]	< 1		< 10
COc1ccc2nc(N3CCC(Nc4nc5ccccc5n4Cc4ccc(F)cc4)CC3)n(O)c(=O)c2c1 [Entry 16]	< 1	< 10	< 10
O=c1c2ccccc2nc(CN2CCC(Nc3nc4ccccc4n3Cc3ccc(F)cc3)CC2)n1O [Entry 1]	< 1	< 1	
O=c1c2ccc(F)cc2nc(N2CCC(Nc3nc4ccccc4n3Cc3ccc(F)cc3)CC2)n1O [Entry 17]	< 1		< 10
